Assay results taken from ChEMBL document CHEMBL1201862, “PubChem BioAssay data set” (2004).
The source made the active and inactive calls. Rule as the data show it, for most assays here: actives have a measured EC50 and inactives only a lower limit.

How the values were obtained:
[1] = biological target: T1, Heat shock factor protein 1 (Mus musculus, UniProt P38532); test: enhancement of HSF1-driven luciferase signal – cell-based, NIH3T3, luminescence, dose retest, confirmation (AID 435004); type: functional;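 also: stress induced by proteasome inhibitor MG132 added 30 min after compound; luciferase reporter driven by HSF1 response element in NIH3T3 cells; actives raise luminescence as potentiators of the MG132 stress response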
T1 sequence (P38532 whole entry): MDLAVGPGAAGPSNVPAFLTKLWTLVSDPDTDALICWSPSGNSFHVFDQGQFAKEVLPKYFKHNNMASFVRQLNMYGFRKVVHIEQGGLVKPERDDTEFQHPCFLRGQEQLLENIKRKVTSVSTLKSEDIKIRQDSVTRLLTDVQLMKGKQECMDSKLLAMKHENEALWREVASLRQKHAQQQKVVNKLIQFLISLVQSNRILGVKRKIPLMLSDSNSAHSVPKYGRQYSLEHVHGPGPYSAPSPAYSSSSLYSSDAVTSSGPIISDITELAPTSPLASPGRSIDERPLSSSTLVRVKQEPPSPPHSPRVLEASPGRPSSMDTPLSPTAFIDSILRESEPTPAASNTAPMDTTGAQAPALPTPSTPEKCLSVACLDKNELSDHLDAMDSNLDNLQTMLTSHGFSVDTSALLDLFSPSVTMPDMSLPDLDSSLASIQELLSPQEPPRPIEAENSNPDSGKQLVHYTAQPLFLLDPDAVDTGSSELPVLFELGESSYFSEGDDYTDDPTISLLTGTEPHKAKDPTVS

[2] = Trypanosoma cruzi growth suppression in host cells – NIH3T3 host cells, beta-gal luminescence, confirmation (AID 2044); type: functional, cell-based;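 also: intracellular parasites grown in NIH/3T3 mouse fibroblasts as host cells; luminescent beta-galactosidase reporter signal from transgenic T. cruzi replicating inside host cells; inhibitors lower the luminescence signal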
[3] = NIH3T3 cell viability loss – ATP luminescence, mouse fibroblasts, counter-screen, dose response (AID 2010); type: functional, cell-based;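 also: cells exposed to compound for about 90 hours before reading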
Paired box protein Pax-8 = Paired box protein Pax-8 (Homo sapiens, UniProt Q06710); test: PAX8 transcriptional activity inhibition in RMG-I – RMG-I cells, luciferase, cherry-pick, dose response (AID 687027); type: functional, cell-based;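 also: luciferase reporter driven by Pax8 target thyroperoxidase promoter measured by SteadyGlo luminescence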
[4] = NIH-3T3 fibroblast cytotoxicity, dose response, cytotoxicity control, cell-based, fluorescence, Alamar Blue, secondary assay (AID 2327); type: functional;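 also: NIH-3T3 mouse fibroblasts cultured with fluconazole at 8 µg/mL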
[5] = system: Streptococcus sp. 'group A'; test: Streptococcus pyogenes SK(-)GAS viability under kanamycin – luminescence, BacTiterGlo, confirmation, counter-screen for streptokinase expression inhibitor project, dose response (AID 1900); type: functional, organism-based
Streptokinase A = biological target: T2, Streptokinase A (Streptococcus pyogenes serotype M1, UniProt P10520); test: viability-normalized secreted streptokinase activity reduction – plasminogen activation absorbance, OD405, dose response (AID 1914); type: functional, Streptococcus pyogenes M1 GAS;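 also: secreted streptokinase activity via plasminogen activation per viability signal from cell pellet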
T2 sequence (P10520 whole entry): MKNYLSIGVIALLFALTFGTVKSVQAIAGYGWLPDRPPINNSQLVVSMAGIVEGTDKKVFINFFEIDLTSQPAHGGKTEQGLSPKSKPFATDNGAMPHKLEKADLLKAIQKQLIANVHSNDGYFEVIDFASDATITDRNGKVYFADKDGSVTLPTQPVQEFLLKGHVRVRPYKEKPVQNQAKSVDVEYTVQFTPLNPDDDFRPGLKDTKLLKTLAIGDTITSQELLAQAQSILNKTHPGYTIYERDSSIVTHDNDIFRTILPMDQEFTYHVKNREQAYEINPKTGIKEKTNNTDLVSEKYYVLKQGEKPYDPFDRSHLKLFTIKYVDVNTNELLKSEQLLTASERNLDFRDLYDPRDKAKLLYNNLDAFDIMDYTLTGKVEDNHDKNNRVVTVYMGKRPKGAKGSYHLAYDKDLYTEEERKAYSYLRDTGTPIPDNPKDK

[6] = fluconazole-exposed Candida albicans growth modulators – fluorescence, retest, confirmation (AID 2467); type: functional, cell-based
Streptococcus = test: GAS UMAA2166 growth inhibition – luminescence, BacTiterGlo, counter-screen for streptokinase expression inhibitor project, dose response (AID 1915); type: functional, organism-based;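 also: potency for reduction of bacterial viability or growth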
[7] = biological target: T3, Corticotropin-releasing factor receptor 2/Corticotropin-releasing factor-binding protein (Homo sapiens, UniProt P24387+Q13324); test: Dose Response confirmation of uHTS hits for small molecule antagonists of the CRF-binding protein and CRF-R2 receptor complex.; type: functional; conditions: read-out: IC50_Mean
T3 sequence (Q13324 whole entry): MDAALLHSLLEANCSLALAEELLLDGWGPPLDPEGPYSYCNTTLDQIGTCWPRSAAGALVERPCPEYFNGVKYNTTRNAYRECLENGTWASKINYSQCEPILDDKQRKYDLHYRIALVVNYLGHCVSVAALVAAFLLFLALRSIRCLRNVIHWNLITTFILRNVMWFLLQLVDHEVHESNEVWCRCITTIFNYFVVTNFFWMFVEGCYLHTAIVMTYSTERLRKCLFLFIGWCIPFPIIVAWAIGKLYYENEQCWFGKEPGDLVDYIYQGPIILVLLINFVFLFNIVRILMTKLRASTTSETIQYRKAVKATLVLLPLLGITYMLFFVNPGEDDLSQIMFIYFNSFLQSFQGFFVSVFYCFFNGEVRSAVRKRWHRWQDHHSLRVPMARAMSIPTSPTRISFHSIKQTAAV
T3 sequence (P24387 whole entry): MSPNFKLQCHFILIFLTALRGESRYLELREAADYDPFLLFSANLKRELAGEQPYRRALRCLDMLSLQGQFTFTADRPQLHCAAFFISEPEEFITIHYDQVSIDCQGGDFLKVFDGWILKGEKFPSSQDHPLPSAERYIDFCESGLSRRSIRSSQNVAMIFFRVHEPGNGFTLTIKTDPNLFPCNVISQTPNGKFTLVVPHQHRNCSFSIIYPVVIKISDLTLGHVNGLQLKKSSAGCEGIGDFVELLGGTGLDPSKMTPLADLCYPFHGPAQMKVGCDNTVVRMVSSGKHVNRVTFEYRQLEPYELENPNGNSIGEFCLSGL

[8] = biological target: T3, Corticotropin-releasing factor receptor 2/Corticotropin-releasing factor-binding protein; test: activators of CRF receptor 2 with binding protein – uHTS hits, confirmation (AID 602473); type: functional; conditions: read-out: EC50_Mean
[9] = Luminescence Cell-Based Dose Confirmation HTS to Identify Activators of 5'UTR Stem-Loop Driven Alpha-Synuclein mRNA Translation in H4 Neuroglioblastoma Cells. [Related pubchem assays: 1829 (Project Summary), 1814 (Primary HTS)]; type: functional
[10] = Luminescence Cell-Based Dose Response HTS to Identify Activators of Luciferase Translation or Activity in H4 […] Cells. [Related pubchem assays: 1829 (Project Summary), 1814 (Primary HTS)]; type: functional
H4 = test: Luminescence Cell-Based Dose Response HTS to Identify Activators of 5'UTR Stem-Loop Driven Prion Protein mRNA Translation in H4 Neuroglioblastoma Cells. [Related pubchem assays: 1829 (Project Summary), 1814 (Primary HTS)]; type: functional; conditions: Homo sapiens
INS1 = test: INS-1E survival protection against cytokine death – cell-based, luminescence, retest, dose response (AID 449756); type: functional; conditions: Rattus norvegicus;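 also: cell death triggered by IL-1 beta plus TNF-alpha plus IFN-gamma mixture; protective hits raise ATP signal compared with cytokine alone wells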
[11] = luciferase reporter signal suppression in cells – H4 neuroglioma cells, luminescence, dose response (AID 1990); type: functional, cell-based
[12] = Luminescence Cell-Based Dose Response HTS to Identify Inhibitors of 5'UTR Stem-Loop Driven Prion Protein mRNA Translation in H4 Neuroglioblastoma Cells. [Related pubchem assays: 1827 (Project Summary), 1813 (Primary HTS)]; type: functional
[13] = alpha-synuclein stem-loop luciferase translation blockers – H4 neuroglioma cells, luminescence, confirmation (AID 1988); type: functional, cell-based

Paired box protein Pax-8, sequence (Q06710 whole entry): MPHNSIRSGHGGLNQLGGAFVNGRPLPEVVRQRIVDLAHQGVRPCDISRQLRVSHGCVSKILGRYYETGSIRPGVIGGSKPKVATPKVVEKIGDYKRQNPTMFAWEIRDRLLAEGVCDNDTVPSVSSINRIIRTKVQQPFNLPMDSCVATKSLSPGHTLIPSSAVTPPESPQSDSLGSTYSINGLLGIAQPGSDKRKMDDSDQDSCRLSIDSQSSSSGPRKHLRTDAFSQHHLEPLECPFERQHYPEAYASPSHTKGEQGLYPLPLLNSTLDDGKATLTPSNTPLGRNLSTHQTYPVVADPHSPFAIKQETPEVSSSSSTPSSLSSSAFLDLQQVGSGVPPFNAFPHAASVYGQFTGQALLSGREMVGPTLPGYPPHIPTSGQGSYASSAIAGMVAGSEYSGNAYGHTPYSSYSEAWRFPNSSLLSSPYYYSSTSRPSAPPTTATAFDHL

SMILES | EC50 [1] | EC50 [9] | EC50 [10] | EC50 (H4) | also measured
Cc1ccc2nc(-c3ccc4c(c3)OCCO4)cc(C(=O)O)c2c1 | > 260 µM (inactive) | – | – | – | –
O=C(NC1CCCCC1)C(c1cccs1)N(C(=O)Cc1c[nH]c2ccccc12)c1ccc(F)cc1 (stereo not drawn) | – | – | – | – | EC50 [2]: 871 nM (active); EC50 [3]: 9.47 µM (active); AC50 (Paired box protein Pax-8): 11.7 µM (active)
O=C(O)c1cnc(-c2ccccc2)nc1Sc1ccc(Cl)cc1Cl | – | – | – | – | EC50 [4]: 57.8 µM (active); EC50 [5]: 15.4 µM (active); EC50 (Streptokinase A): 18.8 µM (active); EC50 [6]: 130 nM (active); EC50 (Streptococcus): > 150 µM (not active); IC50 [7]: 1.85 µM (active); EC50 [8]: > 53 µM (inactive)
CCN1CCN(C(CNC(=O)c2ccc3c(c2)OCO3)c2cccnc2)CC1 (stereo not drawn) | – | > 120 µM (not active) | 11.5 µM (active) | 15.6 µM (active) | –
CCN(CC)S(=O)(=O)c1ccc(OC)c(NC(=O)c2cc3c(=O)n4ccccc4nc3s2)c1 | > 260 µM (inactive) | – | – | – | –
CN(Cc1ccccc1)C(=O)CCC1CCN(C(=O)CC2=CCCCC2)CC1 | > 260 µM (inactive) | – | – | – | –
Cc1c(C(=O)N(Cc2ccncc2)CC2CCCO2)oc2c(F)cccc12 (stereo not drawn) | > 260 µM (inactive) | – | – | – | –
COc1ccc(N2C(S)=NC3N2C(S)=NC3(C)c2ccccc2)cc1 (stereo not drawn) | – | 18.1 µM (active) | 35 µM (active) | 53.5 µM (active) | –
CSc1nsc(SCC(=O)Nc2ccc(C(C)=O)cc2)n1 | – | 4.49 µM (active) | 23.5 µM (active) | 6.18 µM (active) | –
Cc1ccc(O)c(C(=O)c2cnc3c(c2)CN(CCC(C)C)C(=O)N3)c1 | > 260 µM (inactive) | – | – | – | –
CC(C)(C)C1CCC(OC(=O)CN2CCOCC2)CC1 (stereo not drawn) | – | 13.5 µM (active) | 8.04 µM (active) | 19.6 µM (active) | –
Cc1cc(O)c2c(c1)C(=O)C13C(=C2O)C(=O)[C@H]2[C@@H](O)[C@@H]1[C@H]1[C@H](O)[C@@H]3C(=O)C3=C(O)c4c(O)cc(C)cc4C(=O)C312 (stereo partly drawn) | – | – | – | – | AC50 (INS1): 7.65 µM (active)
CN(C)c1ccc(N=Nc2ccccc2C(=O)OCC(=O)N(C)C2CCCCC2)cc1 | – | 85.5 µM (active) | 84.2 µM (active) | 51.8 µM (active) | –
CN1C(=O)C2C=CC1C1C(=O)N(c3ccccc3)C(=O)C21 (stereo not drawn) | – | 0.128 µM (active) | 0.45 µM (active) | 0.209 µM (active) | –
CCO[C@@H]1OC(C(=O)NCc2nc3ccccc3[nH]2)=C[C@H](C2CC2)[C@H]1CCCO | – | > 120 µM (not active) | > 120 µM (not active) | > 120 µM (not active) | –
CCCCc1ccc(-c2ccc(Br)cc2)nc1 | > 260 µM (inactive) | – | – | – | –
O=C(NC1CCCCC1)C1CCCN1S(=O)(=O)c1cccc2nsnc12 (stereo not drawn) | > 260 µM (inactive) | – | – | – | –
Cc1cccc(C2c3[nH]c4ccccc4c3CCN2Cc2cnn(-c3ccc(F)cc3)c2)n1 (stereo not drawn) | > 260 µM (inactive) | – | – | – | –
CCOC(=O)C1CCN(C(=O)CN2C(=O)COc3ccc(C(C)(C)C)cc32)CC1 | – | > 120 µM (not active) | > 120 µM (not active) | > 120 µM (not active) | –
Nc1ccccc1-[n+]1c(-c2ccccc2)cc(-c2ccccc2)cc1-c1ccccc1.[O-][Cl+3]([O-])([O-])[O-] | – | – | – | – | EC50 [4]: > 150 µM (inactive); EC50 [6]: 843 nM (active); EC50 [2]: 114 nM (active); EC50 [3]: > 60 µM (not active)
CN(C)CCCN(C(=O)CCOc1ccccc1)c1nc2c(F)cccc2s1 | – | – | – | – | EC50 [2]: 152 nM (active); EC50 [3]: 7.17 µM (active); AC50 (Paired box protein Pax-8): 7.17 µM (active)
COC(=O)c1cn(CCOc2ccccc2)c2ccccc12 | – | 6.67 µM (active) | 10.2 µM (active) | 12.9 µM (active) | –
Cn1nnnc1SCC(=O)Nc1nc2ccccc2s1 | – | 8.16 µM (active) | 8.98 µM (active) | 33.4 µM (active) | –
CC(C)(C)CN1CCC(Oc2cccc(C(=O)NCCCOc3cccnc3)c2)CC1 | – | – | – | – | AC50 (INS1): 1.25 µM (active)
CC(Nc1cc(N2CCNCC2)ccc1[N+](=O)[O-])c1ccccc1 (stereo not drawn) | > 260 µM (inactive) | – | – | – | EC50 [11]: > 120 µM (not active); EC50 [12]: > 120 µM (not active); EC50 [13]: 33.7 µM (active)
COc1c2c(cc3oc(=O)c4c5ccc(O)cc5oc4c13)OC(C)(C)CC2 [ISOGLYCYROL] | – | 0.274 µM (active) | 3.13 µM (active) | – | –
